Patent publication US10792305B2, “Therapeutic immune modulation using noble gas compositions” (NOBILIS THERAPEUTICS, INC., priority 2015, dated 2020)
“Also recorded” adds a separate entry of the source.

Assays:
PTSD = conditions: 20 mg/day and 40 mg/day, cited from earlier work
[1] = test system: severely disruptive symptoms related to autistic disorder; conditions: pentoxifylline titrated to 600 mg/day with risperidone up to 3 mg/day, 10 weeks, versus placebo+risperidone; cited from earlier work
[2] = test system: behavioral symptoms of children with ASD; conditions: 30 or 60 mg per day p.o. for 3-4 months, 25 children; cited from earlier work
[3] = test system: TNF-alpha production from monocytes; assay: Induced TNF-alpha production by monocytes (adherent PBMC), ELISA; format: cell-based, human; conditions: 30% xenon by volume for 1 or 2 hours; 1 ug/ml LPS and 10 μM amyloid beta peptide Aβ (1-42) for 24 h; supernatant ELISA
Method: 10 ml of heparinized blood was extracted from healthy volunteers and peripheral blood mononuclear cells were isolated by centrifugation over a ficoll gradient. Cells were subsequently washed in 2× volume phosphate buffered saline, and resuspended in RPMI media supplemented with 10% fetal calf serum. Cells were incubated at a concentration of 10 million cells per ml in 6-well plates in a volume of 2 ml per well. Cells were cultured for 24 hours at 37 Celsius in a fully humidified atmosphere with 5% CO2, subsequent to which non-adherent cells were removed by washing with PBS. Adherent cells were subsequently divided into […], one plate incubated at normoxic tissue culture, the second plate cultured for 1 hour in 30% xenon by volume, and the third tissue cultured for 2 hours in 30% volume. Cells were treated with control media, 1 ug/ml LPS and 10 μM of amyloid beta peptide Aβ (1-42) for 24 h. Supernatant was collected and assessed for TNF-alpha production by ELISA.

[4] = test system: IL-12 production from dendritic cells; assay: Induced IL-12 production by dendritic cells, ELISA; format: cell-based, human; conditions: CD1c dendritic cells; 1 ug/ml LPS and 10 μM amyloid beta peptide Aβ (1-42) for 24 h; supernatant ELISA
Method: Monocytes from adherent PBMC were isolated as described in Example 1. Dendritic cells were generated by 7 day culture in IL-4 (10 ng/ml) and GM-CSF (20 ng/ml). Media was changed every two days. On day 7, purification of CD1c dendritic cells was performed and cells were cultured in control media, 1 ug/ml LPS and 10 μM of amyloid beta peptide Aβ (1-42) for 24 h. Supernatant was collected and assessed for IL-12 production by ELISA.

**Q.** With Fc1ccc([C@@H]2CCNC[C@H]2COc2ccc3c(c2)OCO3)cc1 [paroxetine] as the molecule, how does the “improvement on primary outcome measures compared to placebo” value (PTSD; intent-to-treat analysis) read?
**A.** significantly greater improvement

**Q.** What about the “PTSD symptom clusters (reexperiencing, avoidance/numbing, hyperarousal), social and occupational impairment, comorbid depression” value (PTSD; versus placebo) of the same molecule?
**A.** statistically significant improvement compared to placebo

**Q.** And the tolerability (PTSD)?
**A.** well tolerated

**Q.** For CC(=O)CCCCn1c(=O)c2c(ncn2C)n(C)c1=O [pentoxifylline], which “ABC-C subscale scores (Irritability, Lethargy/Social Withdrawal, Stereotypic Behavior, Hyperactivity/Noncompliance, Inappropriate Speech)” value [1] is on record?
**A.** greater reduction in ABC-C subscale scores

**Q.** Which adverse events [2] does the source give for CCc1ccc(CCOc2ccc(CC3SC(=O)NC3=O)cc2)nc1 (stereo not shown) [pioglitazone] here?
**A.** without adverse events

**Q.** What does the source list for [Xe] [xenon gas, xenon]?
**A.** induced TNF-alpha production (FIG. 1) [3]: suppression of induced TNF-alpha production was observed; also recorded: suppression of inducible TNF-alpha production; induced IL-12 production (FIG. 2) [4]: suppression of induced IL-12 production was observed; also recorded: suppression of inducible IL-12 production
